In patent US20100292306A1, “Compositions And Methods For The Treatment Of Muscular Dystrophy” (priority 2005, published 2010):
“Also recorded” adds a separate entry of the source.

System: mdx mice
Assay: Noninvasive whole body tension (WBT) measurement of forward pulling tensions
Assay type: in vivo
Description: FIG. 18 presents individual “forward pulling tensions” (FPTs; upward deflections) recorded from a PDTC-treated mouse (Series 2) using the whole body tension (WBT) technique (Carlson and Makiejus, 1990). The rank order of FPTs from highest to lowest is indicated by the numbers in the figure. […] In the Series 2 experiments, WBT measurements were obtained from each of the saline-injected and PDTC-injected mice on days 0, 9, 21 and 40 of the experiment.
As a first step in examining the potential effects of PDTC treatment on WBT tension development, the slope of the decline in FPTs was evaluated for each recording session for each mouse examined in the Series 2 experiments (FIG. 19A, 19B). This measure essentially provides a “fatigue index” (FI) since the slope of the decline in FPTs is a direct measure of the average magnitude of the decline in FPT per individual pull for rank-ordered pulls number 2 through 10. If 10 individual pulls obtained during the recording session have identical magnitudes representing the highest FPT, then the FI equals 0. In contrast, a 50% reduction in FPT per pull would produce an FI equal to −0.5.
To examine the potential effect of PDTC treatment on FI in age matched adult mdx mice, a pre-treatment FU was obtained during a typical recording session from each of 10 mdx mice used in the Series 2 investigations (age 9.5 to 16 months at beginning of study). Five of the mice were subsequently treated with daily injections of vehicle (HEPES buffered Ringer's solution) and 5 of the mice were treated with daily injections of 50 mg/kg PDTC. Recordings for each of the mice were subsequently obtained on days 9, 21, and 40 of the treatment period (e.g., FIG. 19). To determine the potential effects of treatment on FI, the FIs obtained on days 9, 21, and 40 (e.g., FIG. 19) were each normalized to the pre-treatment FI for each of the 10 mice used in the study. […] A decrease in the FI indicating a reduction in the average loss of tension per pull during the course of the study would produce normalized FIs less than one, no change in FI would be associated with normalized FIs equal to 1.0, and increases in FI would produce normalized FIs greater than 1.0.
Mdx (C57 Bl10-mdx) and nondystrophic (C57Bl10-SnJ) mice were obtained from Jackson laboratories and bred under conditions approved by the Institutional Animal Care and Use Committee (IACUC). All studies were performed in accordance with the guidelines provided by the IACUC. Male and female PDTC treated mdx mice received daily intraperitoneal (ip) injections of 50 mg/kg pyrollidine dithiocarbamate (PDTC; Sigma P8765) dissolved in sterile-filtered (0.2 μm) HEPES-buffered Ringers solution (147.5 mM NaCl, 5 mM KCl, 2 mM CaCl2, 11 mM glucose, 5 mM Hepes, pH 7.35). Age- and gender-matched groups of vehicle-treated mice received corresponding injections of HEPES Ringers. See Carlson et al., 2005. The PDTC experiments were conducted on two series of mature adult mdx mice (9.5-16 month; 19-20 months) and on a series of young adult (1 month) mice. In each case, the mice in the experimental and vehicle-treated groups were matched according to age and gender with an equal number of males and females in each group. WBT tension measurements were obtained prior to initiating treatment and on multiple occasions following at least 3 weeks (20 days) of treatment.
A group of 30 day-old mdx mice were exposed to daily ip injections (30 day) of 40 mg/kg UDCA (Sigma #5127; 2 mg/ml; N=12 experimental) in an isotonic saline vehicle (1.02% NaCl, pH 8.4,) or a synthetic taurine derivative of UDCA (tauroursodeoxycholic acid, TUDCA, SpA Laboratorio Farmacologico, Cenate Sotto, Italy; 6 mg/ml; N=4 experimental) administered in a saline vehicle (NaCl 6 g/l, KCl 0.3 g/l, CaCl2 0.2 g/l, Na acetate 4 g/l, 300 mosM/l, pH 6.1).
WBT measurements were obtained as indicated in Examples 5 through 7 by placing an approximately 0.5 inch square piece of adhesive tape around the tail about 1 inch from the tip. […]

[1] = individual 6 month mdx male, 50 mg/kg for 30 days (FIG. 34C)
[2] = mature mdx, Series 2 through 4, post-treatment (at least 20 days), p<0.05
[3] = mature mdx, Series 2 through 4, p<0.05

S=C(S)N1CCCC1 [PDTC, pyrrolidine dithiocarbamate]
functional reserve FR (WBT10/WBT5) (50 mg/kg 30 consecutive days from about 30 days of age, at 60 days): approximately 0.9 | normalized fatigue index (FI), effect of treatment over days (Series 2, 50 mg/kg daily, Kruskal-Wallis p<0.05, Day 0 vs Day 9 and Day 40): significant effect | normalized FI vs vehicle-injected (Series 2, Day 40, p<0.05): significantly different | fatigue index (FI), combined post-treatment results (Series 2, Days 9, 21 and 40 combined, p<0.05 vs vehicle): reducing; also recorded: reduces | normalized FI vs vehicle-injected (Series 2, Days 9 and 21): failed to reach significance | FPT10 as percent of FPT1 [1]: approximately 77% | maximum FPT [1]: approximately 310 g | whole body strength (mature mdx mice): significantly increasing | WBT5 vs vehicle-injected [2]: elevated | WBT10 vs vehicle-injected [2]: elevated | FR (WBT10/WBT5) post-treatment vs pre-treatment [3]: increased | WBT10 post-treatment vs pre-treatment [3]: increased | increase in WBT5 relative to vehicle (young mdx, 60 days of age): did not reach statistical significance | increase in WBT10 relative to vehicle (young mdx, 60 days of age): did not reach statistical significance | FR relative to vehicle-injected mdx mice (young mdx, 60 days of age, p<0.01): increased; also recorded: prevents a decline
